Molecules are shown by their SMILES. ≈ marks a conversion by molar mass, not a printed value.

The values below come from ChEMBL document CHEMBL1649303, “Effects of subinhibitory concentrations of antibiotics on colonization factor expression by moxifloxacin-susceptible and moxifloxacin-resistant Clostridium difficile strains” (2009).

What all share (type): functional
The test system of assay [1] is Clostridioides difficile. Kind of assay: Antimicrobial activity against Clostridium difficile CD196 by broth dilution method. In general terms: Broth dilution looks for growth in wells or tubes with falling amounts of substance.
Assay [2] has as its system Clostridioides difficile. Kind of assay: Antimicrobial activity against Clostridium difficile 6425 by broth dilution method.
In assay [3] the test system is Clostridioides difficile. Kind of assay: Antimicrobial activity against Clostridium difficile CD07-259 by broth dilution method.
Assay [4] deals with Clostridioides difficile. Put plainly: Antimicrobial activity against Clostridium difficile ATCC 43603 by broth dilution method.
Assay [5] concerns Clostridioides difficile. Kind of assay: Antimicrobial activity against Clostridium difficile 6269 by broth dilution method.
Assay [6] relates to Clostridioides difficile. Kind of assay: Upregulation of cwp84 gene expression in Clostridium difficile ATCC 43603-M1 at 0.5 times MIC by real-time PCR analysis relative to control. In general terms: Real-time PCR tracks product formation cycle by cycle.
The subject of assay [7] is Clostridioides difficile. Put plainly: Induction of Cwp84 protease expression in Clostridium difficile ATCC 43603-M1 at 0.5 times MIC by immunoblot analysis. (In western blotting, separated proteins are transferred to a membrane and probed.)
For assay [8], the system named is Clostridioides difficile. Kind of assay: Antimicrobial activity against Clostridium difficile ATCC 43603-M1 by broth dilution method.
Assay [9] deals with Clostridioides difficile. Put plainly: Induction of Cwp84 protease expression in Clostridium difficile 6425 at 0.5 times MIC by immunoblot analysis.
In assay [10] the test system is Clostridioides difficile. Put plainly: Upregulation of slpA gene expression in Clostridium difficile ATCC 43603-M1 at 0.5 times MIC by real-time PCR analysis relative to control.
The test system of assay [11] is Clostridioides difficile. Kind of assay: Upregulation of fbp68 gene expression in Clostridium difficile ATCC 43603 at 0.5 times MIC by real-time PCR analysis relative to control.
The nature of assay [12]: Antimicrobial activity against Clostridium difficile CD196 M1 by broth dilution method. Conditions: Clostridioides difficile.
Assay [13] concerns Clostridioides difficile. Put plainly: Upregulation of cwp84 gene expression in Clostridium difficile ATCC 43603 at 0.5 times MIC by real-time PCR analysis relative to control.
The test system of assay [14] is Clostridioides difficile. Kind of assay: Upregulation of slpA gene expression in Clostridium difficile CD07-259 at 0.5 times MIC by real-time PCR analysis relative to control.
Assay [15] relates to Clostridioides difficile. Put plainly: Upregulation of fbp68 gene expression in Clostridium difficile ATCC 43603-M1 at 0.5 times MIC by real-time PCR analysis relative to control.
Assay [16] deals with Clostridioides difficile. Kind of assay: Upregulation of slpA gene expression in Clostridium difficile ATCC 43603 at 0.5 times MIC by real-time PCR analysis relative to control.
For assay [17], the system named is Clostridioides difficile. Kind of assay: Upregulation of slpA gene expression in Clostridium difficile 6425 at 0.5 times MIC by real-time PCR analysis relative to control.

For the molecule `CC1(C)S[C@@H]2[C@H](NC(=O)[C@H](N)c3ccccc3)C(=O)N2[C@H]1C(=O)O` [AMPICILLIN], the MIC (as a rule, the smallest concentration in the dilution series that meets the test's criterion for growth inhibition) worked out at 8 µg/mL (≈ 22.9 µM) in the assay with Clostridioides difficile [1]; 4 µg/mL (≈ 11.4 µM) in the assay with Clostridioides difficile [2]; 4 µg/mL (≈ 11.4 µM) with Clostridioides difficile [3]; 2 µg/mL (≈ 5.72 µM) in the assay with Clostridioides difficile [4]; 2 µg/mL (≈ 5.72 µM) in the assay with Clostridioides difficile [5].
`CCC[C@@H]1C[C@@H](C(=O)N[C@@H]([C@H]2O[C@H](SC)[C@H](O)[C@@H](O)[C@H]2O)[C@H](C)Cl)N(C)C1` [CLINDAMYCIN]: the MIC came to 128 µg/mL (≈ 301 µM) in the assay on Clostridioides difficile [1]; 128 µg/mL (≈ 301 µM) against Clostridioides difficile [2]; 4 µg/mL (≈ 9.41 µM) with Clostridioides difficile [3]; 4 µg/mL (≈ 9.41 µM) against Clostridioides difficile [4]; 1 µg/mL (≈ 2.35 µM) in the assay on Clostridioides difficile [5].
Turning to `CC1COc2c(N3CCN(C)CC3)c(F)cc3c(=O)c(C(=O)O)cn1c23` (configuration not stated) [OFLOXACIN], the MIC turned out to be 8 µg/mL (≈ 22.1 µM) in the assay with Clostridioides difficile [1]; 256 µg/mL (≈ 708 µM) with Clostridioides difficile [8]; 128 µg/mL (≈ 354 µM) in assay [12]; 256 µg/mL (≈ 708 µM) against Clostridioides difficile [2]; 256 µg/mL (≈ 708 µM) with Clostridioides difficile [3]; 8 µg/mL (≈ 22.1 µM) with Clostridioides difficile [4]. Besides, the MIC against Clostridioides difficile [5] came out at 32 µg/mL (≈ 88.6 µM). Moreover, the “fold change (FC)” value in the assay with Clostridioides difficile [6] turned out to be 67.4; in the assay with Clostridioides difficile [10], 32.8; in the assay with Clostridioides difficile [11], 4.8; in the assay on Clostridioides difficile [13], 3.2; in the assay with Clostridioides difficile [14], 22; with Clostridioides difficile [15], 2.1. Further, the figures for the “fold change (FC)” value with Clostridioides difficile [16] and with Clostridioides difficile [17] were 3.9 and 4, respectively. Besides, the values for the Activity in the assay on Clostridioides difficile [7] and with Clostridioides difficile [9] were 25% and 130%, respectively.
